“Also recorded” adds a separate entry of the source. Where two headings read alike, the source gives them in different places.
Tests used:
CFTR [1] = settings: CFTR corrector, cited from earlier work; for EC50: read-out: Potency: EC50
CFTR [2] = biological target: T1, CFTR (Homo sapiens, UniProt P13569); settings: cited from earlier work; for Ki: CFTR blocker, read-out: Potency: Ki
Target sequence in this assay (P13569 whole entry): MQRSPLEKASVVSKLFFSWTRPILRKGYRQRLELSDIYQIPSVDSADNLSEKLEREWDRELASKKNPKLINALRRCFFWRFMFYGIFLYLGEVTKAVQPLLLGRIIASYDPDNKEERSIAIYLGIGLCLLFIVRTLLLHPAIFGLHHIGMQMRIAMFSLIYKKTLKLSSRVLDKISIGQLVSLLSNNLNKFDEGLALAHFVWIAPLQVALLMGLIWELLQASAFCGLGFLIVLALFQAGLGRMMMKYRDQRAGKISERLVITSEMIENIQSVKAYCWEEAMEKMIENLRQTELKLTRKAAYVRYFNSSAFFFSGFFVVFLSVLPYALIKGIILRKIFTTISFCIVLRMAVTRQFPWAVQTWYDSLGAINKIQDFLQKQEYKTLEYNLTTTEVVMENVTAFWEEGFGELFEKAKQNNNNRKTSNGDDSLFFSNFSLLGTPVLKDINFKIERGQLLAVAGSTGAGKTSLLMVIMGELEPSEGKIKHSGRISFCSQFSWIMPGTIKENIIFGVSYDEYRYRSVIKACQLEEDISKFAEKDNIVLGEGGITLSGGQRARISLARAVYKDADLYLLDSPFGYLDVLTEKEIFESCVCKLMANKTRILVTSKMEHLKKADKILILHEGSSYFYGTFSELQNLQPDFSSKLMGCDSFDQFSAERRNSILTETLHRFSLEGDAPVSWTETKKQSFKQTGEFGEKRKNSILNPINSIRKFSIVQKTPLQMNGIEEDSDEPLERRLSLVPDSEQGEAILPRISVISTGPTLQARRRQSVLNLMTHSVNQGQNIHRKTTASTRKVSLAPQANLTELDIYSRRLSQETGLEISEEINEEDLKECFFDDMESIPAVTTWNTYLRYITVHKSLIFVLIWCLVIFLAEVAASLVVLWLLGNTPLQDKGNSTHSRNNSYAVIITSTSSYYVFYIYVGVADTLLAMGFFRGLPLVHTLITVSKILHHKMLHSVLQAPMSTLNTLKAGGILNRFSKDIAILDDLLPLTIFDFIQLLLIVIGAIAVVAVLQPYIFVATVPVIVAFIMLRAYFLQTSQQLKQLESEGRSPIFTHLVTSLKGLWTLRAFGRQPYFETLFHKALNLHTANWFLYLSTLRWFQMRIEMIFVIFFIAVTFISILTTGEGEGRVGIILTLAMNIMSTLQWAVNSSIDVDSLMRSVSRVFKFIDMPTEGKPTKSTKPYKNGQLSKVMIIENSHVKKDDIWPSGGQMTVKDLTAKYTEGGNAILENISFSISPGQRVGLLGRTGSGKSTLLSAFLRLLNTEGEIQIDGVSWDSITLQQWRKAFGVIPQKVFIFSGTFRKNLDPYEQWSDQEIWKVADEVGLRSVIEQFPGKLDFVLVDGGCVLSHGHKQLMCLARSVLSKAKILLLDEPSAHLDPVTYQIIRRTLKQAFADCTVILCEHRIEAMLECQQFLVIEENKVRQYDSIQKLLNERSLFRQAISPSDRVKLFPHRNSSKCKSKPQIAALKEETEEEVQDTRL

CFTR [3] = test: Organoid swelling on compound addition (organoid origin not stated; FIG. 7, FIG. 32); format: cell-based
[4] = cited from earlier work
CFTR [5] = settings: cited from earlier work
CFTR [6] = biological target: T1, CFTR; format: cell-based; settings: for Effect of CFTR inhibitors on forskolin-stimulated swelling: Example 2, 3 hours pre-incubation, 50 μM
Target sequence in this assay (P13569 whole entry, looked up): as the sequence (P13569 whole entry) above

CFTR [7] = biological target: CFTR (Mus musculus, UniProt P26361); test: Forskolin-induced swelling (FIS) of murine wild-type small intestinal organoids; settings: live cell microscopy
[8] = human healthy control organoids

Sequence of CFTR (Mus musculus, UniProt P26361) (P26361 whole entry): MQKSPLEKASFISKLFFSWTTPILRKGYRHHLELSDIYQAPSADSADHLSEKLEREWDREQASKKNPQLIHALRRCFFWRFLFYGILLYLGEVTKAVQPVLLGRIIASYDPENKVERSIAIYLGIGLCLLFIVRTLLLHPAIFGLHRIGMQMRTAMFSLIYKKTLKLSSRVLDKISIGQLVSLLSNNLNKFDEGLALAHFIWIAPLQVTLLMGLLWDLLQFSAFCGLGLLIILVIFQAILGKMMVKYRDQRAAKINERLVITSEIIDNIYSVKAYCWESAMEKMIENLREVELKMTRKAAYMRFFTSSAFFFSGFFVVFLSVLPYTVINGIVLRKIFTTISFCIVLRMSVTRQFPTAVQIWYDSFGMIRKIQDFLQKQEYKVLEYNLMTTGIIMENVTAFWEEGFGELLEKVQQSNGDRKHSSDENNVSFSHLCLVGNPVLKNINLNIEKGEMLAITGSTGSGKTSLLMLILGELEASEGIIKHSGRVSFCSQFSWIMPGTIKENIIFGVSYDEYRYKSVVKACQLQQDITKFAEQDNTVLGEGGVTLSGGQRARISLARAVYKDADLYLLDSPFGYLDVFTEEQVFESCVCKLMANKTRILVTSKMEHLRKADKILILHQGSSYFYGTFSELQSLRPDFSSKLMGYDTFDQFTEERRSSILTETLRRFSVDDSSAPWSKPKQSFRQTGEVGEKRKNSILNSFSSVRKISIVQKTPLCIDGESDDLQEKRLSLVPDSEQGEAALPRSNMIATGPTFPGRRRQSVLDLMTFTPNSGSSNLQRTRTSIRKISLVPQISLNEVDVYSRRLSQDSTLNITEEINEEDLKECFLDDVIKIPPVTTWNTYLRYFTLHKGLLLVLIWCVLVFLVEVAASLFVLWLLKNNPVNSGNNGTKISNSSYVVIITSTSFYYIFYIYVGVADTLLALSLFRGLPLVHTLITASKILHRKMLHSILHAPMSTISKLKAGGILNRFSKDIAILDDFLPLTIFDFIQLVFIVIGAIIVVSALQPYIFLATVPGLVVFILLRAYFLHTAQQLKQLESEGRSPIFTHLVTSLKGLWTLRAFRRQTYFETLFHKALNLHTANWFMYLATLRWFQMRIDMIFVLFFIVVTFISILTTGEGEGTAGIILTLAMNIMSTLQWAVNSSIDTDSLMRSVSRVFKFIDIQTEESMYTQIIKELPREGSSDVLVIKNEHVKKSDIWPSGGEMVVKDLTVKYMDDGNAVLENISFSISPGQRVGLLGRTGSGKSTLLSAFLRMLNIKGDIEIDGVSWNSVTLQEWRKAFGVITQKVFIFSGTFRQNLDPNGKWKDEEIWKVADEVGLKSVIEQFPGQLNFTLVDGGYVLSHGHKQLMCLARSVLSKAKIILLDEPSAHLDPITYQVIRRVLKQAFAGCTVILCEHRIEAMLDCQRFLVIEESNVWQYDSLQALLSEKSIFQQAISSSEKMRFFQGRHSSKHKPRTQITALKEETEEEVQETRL

Compound: COc1ccc(S(=O)(=O)N2CCN(C(C)c3nc(OC4CCCCC4)c4ccccc4n3)CC2)cc1 (centres unmarked) [C3, Cyclohexyloxy-2-{1-[4-(4-methoxy-benzensulfonyl)-piperazin-1-yl]-ethyl}-quinazoline]
- EC50 (CFTR [1]): 2 µM

Compound: COc1ccccc1Nc1ncc(-c2sc(NC(=O)c3ccccc3)nc2C)s1 [C14, N-(2′-(2-methoxyphenylamino)-4-methyl-5,5′-bithiazol-2-yl)benzamide]
- EC50 (CFTR [1]): 7 µM

Compound: Cc1cc(Nc2ccc(Br)cc2)nc2ccccc12 [C6, N-(4-bromophenyl)-4-methylquinolin-2-amine]
- EC50 (CFTR [1]): 8 µM

Compound: Cc1ccc(C2Nc3ccccc3-n3c(-c4ccccc4)c4c(=O)n(C)c(=O)n(C)c4c32)o1 (centres unmarked) [B6, 7,9-dimethyl-11-phenyl-6-(5-methylfuran-2-yl)-5,6-dihydro-pyrimido-[4′,5′-3,4]pyrrolo[1,2-a]quinoxaline-8,10-(7H,9H)-dione]
- Ki (CFTR [2]): 0.09 µM

Compound: NCCc1ccc(O)c(O)c1 [dopamine]
- Organoid swelling on compound addition (CFTR [3]): forskolin-like swelling

Compound: O=C(O)c1ccc(/C=C2\SC(=O)N(c3cccc(C(F)(F)F)c3)C2=O)cc1 [B8, 4-[[3-[3-(trifluoromethyl)phenyl]-2,4-dioxo-5-thiazolidinyli-dene]methyl]benzoic acid]
- Ki (CFTR [2]): ~1 µM
- Water solubility relative to Inh.-172 [4]: more water soluble than Inh.-172

Compound: Cc1cc(C)c2c(C)cc(Nc3ccccc3)nc2c1 [C5, 4,5,7-trimethyl N-phenylquinolin-2-amine]
- EC50 (CFTR [1]): 13 µM

Compound: Cc1ccc(S(=O)(=O)NC(=O)Nc2ccc([N+](=O)[O-])cc2)cc1 [B3, Diarylsulfonyl- urea]
- Ki (CFTR [2]): > 100 µM

Compound: CC(=O)c1cccc(Nc2nc(-c3sc(NC(=O)c4ccccc4)nc3C)cs2)c1 [C13, N-(2-(3-acetylphenyl-amino)-4′-methyl-4,5′-bithiazol-2′-yl)benzamide]
- EC50 (CFTR [1]): 2 µM

Compound: O=C(N/N=C\c1ccc(O)c(O)c1)c1cc2ccccc2cc1O [C11, (Z)-N′-(3,4-dihydroxyben-zylidene)-3-hydroxy-2-naphtho-hydrazide]
- EC50 (CFTR [1]): 10 to 20 µM

Compound: O=C1Cc2cc(C(F)(F)F)ccc2N1c1cc(Cl)ccc1O [P7, 1-(5-Chloro-2-hydroxy-phenyl)-5-trifluoromethyl-1,3-dihydro-indol-2-one]
- EC50 (CFTR [5]; CFTR potentiator, read-out: Potency: EC50): 3 µM
- Activity in excised patches (CFTR [5]; excised patches): Does not work in excised patches

Compound: CCN(c1ccccc1)S(=O)(=O)c1ccc2[nH]cc(C(=O)NCc3ccccc3OC)c(=O)c2c1 [P3, 6-(Ethyl-phenyl-sulfonyl)-4-oxo-1,4-dihydro-quinoline-3-carboxylic acid 2-methoxy-benzylamide]
- Potency: Ks (CFTR [5]; CFTR potentiator): Reference #** 4 Name: SF-03 Potency: Ks = 30 nM Solvent: DMSO Hints For Use: M.W.: 491.6

Compound: cholera toxin
- Increase in organoid size (CFTR [6]): more than double in size
- Organoid swelling induced by stimulus (CFTR [6]): induce swelling
- Time course of swelling response (CFTR [6]): delayed compared to forskolin

Compound: O=C1/C(=C/c2ccc(-c3nn[nH]n3)cc2)SC(=S)N1c1cccc(C(F)(F)F)c1 [B7, 5-[[4-(2h-tetrazol-5-yl)phenyl]methylene]-2-thioxo-3-[3-(trifluoromethyl)phenyl]-4-thiazolidinone]
- Ki (CFTR [2]): ~1 µM
- Water solubility relative to Inh.-172 [4]: more water soluble than Inh.-172

Compound: Cc1ccc(-c2csc(Nc3ccc(F)cc3)n2)cc1 [C12, N-(4-fluorophenyl)-4-p-tolylthiazol-2-amine]
- EC50 (CFTR [1]): 5 µM

Compound: ClCc1cc(-c2ccccc2OCc2ccccc2)no1 [P10, 3-(2-Benzyloxy-phenyl)-5-chloromethyl-isoxazole]
- Potency: Ks (CFTR [5]; CFTR potentiator): Reference #** 10 Potency: Ks >50 microM Solvent: DMSO Hints For Use: M.W.: 299.8

Compound: O=C(CNc1ccc2ccccc2c1)N/N=C/c1cc(Br)c(O)c(Br)c1O [B2, (Naphthalen-2-ylamino)-acetic acid (3,5-dibromo-2,4,- dihydroxy-benzylidene)-hydrazide]
- Effect of CFTR inhibitors on forskolin-stimulated swelling (CFTR [6]; [8]): reduced

Compound: O=C1c2c(O)cc(O)cc2OCC1c1ccc(O)cc1 (centres unmarked) [P6, 5,7,Dihydroxy-3-(4-hydroxy-phenyl)-chroman-4-one]
- Organoid swelling on compound addition (CFTR [3]): rapid organoid swelling
- Potency: Ks (CFTR [5]; CFTR potentiator): Reference #** 8 Name: Genistein (discontinued— available from Sigma #G6649) Potency: Ks = 10 to 30 microM Solvent: DMSO

Compound: COc1ccc2nc(Nc3nc(=O)c(C)c(C)[nH]3)nc(C)c2c1 [C16, 2-(6-methoxy-4-methylquina-zolin-2-ylamino)-5,6-dimethylpyrimi-din-4(1H)-one]
- EC50 (CFTR [1]): 15 µM

Compound: COc1ccc(Cl)cc1Nc1nc(-c2sc(NC(=O)c3ccccc3)nc2C)cs1 [C4, N-[2-(5-Chloro-2-methoxy-phenylamino)-4′-methyl-[4,5′]bithiazolyl-2′-yl]-benzamide]
- EC50 (CFTR [1]): 2 µM

Compound: C=Cc1ccc(-c2csc(Nc3ccccc3)n2)cc1 [C15, N-phenyl-4-(4-vinylphenyl) thiazol-2-amine]
- EC50 (CFTR [1]): 16 µM

Compound: CC(NCCc1ccc(O)cc1)C(O)c1ccc(O)cc1 (centres unmarked) [ritodrine]
- Organoid swelling on compound addition (CFTR [3]): forskolin-like swelling

Compound: C=C[C@@]1(C)CC(=O)[C@]2(O)[C@@]3(C)[C@@H](O)CCC(C)(C)[C@@H]3[C@H](O)[C@H](OC(C)=O)[C@@]2(C)O1 [forskolin, (3R,4aR,5S,6S,6aS,10S,10aR,10bS)-6,10,10b-trihydroxy-3,4a,7,7,10a-pentamethyl-1-oxo-3-vinyldodecahydro-1H-benzo[f]chromen-5-yl acetate]
- Organoid swelling induced by stimulus (CFTR [6]; [8]): rapid forskolin-stimulated swelling
- Increase in organoid size (CFTR [6]; human organoids, in the space of 120 minutes (FIG. 8)): more than double in size
- Organoid swelling on forskolin addition (CFTR [7]): rapid expansion of the lumen and total organoid surface area; also recorded: dose-dependent relation between forskolin and increase of surface area over time

Compound: COc1ccc(Cl)cc1Nc1nc(-c2sc(NC(=O)C(C)(C)C)nc2C)cs1 [C17, N-(2-(5-chloro-2-methoxyphenylamino)-4′-methyl-4,5′-bithiazol-2′-yl)pivalamide]
- EC50 (CFTR [1]): 1 to 2 µM

Compound: C#CCCc1nn(-c2ccccc2)c(OC)c1C=O [P9, 3-But-3-ynyl-5-methoxy-1-phenyl-1H-pyrazole-4-carbaldehyde]
- Potency: Ks (CFTR [5]; CFTR potentiator): Reference #** 10 Potency: Ks = 10 microM Solvent: DMSO Hints For Use: M.W.: 254.3

Compound: O=S(=O)(c1ccc(Cl)cc1)N1CCN(c2ccnc3cc(Cl)ccc23)CC1 [C9, 7-chloro-4-(4-(4-chlorophenylsul-fonyl)piperazin-1-yl)quinoline]
- EC50 (CFTR [1]): < 1 µM

Compound: CC(C)(C)NCC(O)c1ccc(O)c(CO)c1 (centres unmarked) [salbutamol]
- Organoid swelling on compound addition (CFTR [3]): forskolin-like swelling

Compound: O=C(O)c1ccc(/C=C2/SC(=S)N(c3cccc(C(F)(F)F)c3)C2=O)cc1 [B1, 4-[4-Oxo-2-thioxo-3-(3-trifluoromethyl-phenyl)-thiazolidin-5-ylidenemethyl]-benzoic acid]
- Effect of CFTR inhibitors on forskolin-stimulated swelling (CFTR [6]; [8]): reduced
- Ki (CFTR [2]): 0.3 µM
- Onset of inhibition (CFTR [2]; some cell types (eg. T84 cells), requiring prolonged incubation): Slow onset of inhibition

Compound: Cc1ccc(O)c(-c2cc(-c3ccccc3)[nH]n2)c1 [P1, 4-Methyl-2-(5-phenyl-1H-pyrazol-3-yl)-phenol]
- Potency: Ks (CFTR [5]; CFTR potentiator): Reference #**12 & 15 Name: VRT-532 Potency: Ks 3 to 5 microM Solvent: DMSO Hints For Use: M.W.: 250

Compound: O=S(=O)(c1ccccc1)N1CCN(c2ccnc3cc(Cl)ccc23)CC1 [C10, 7-chloro-4-(4-(phenylsulfonyl)piperazin-1-yl)quinoline]
- EC50 (CFTR [1]): > 100 µM

Compound: O=C(Nc1ncc(C(c2ccccc2Cl)N2CCC(O)C2)s1)C1(c2ccc3c(c2)OCO3)CC1 (centres unmarked) [C18, 1-(benzo[d][1,3]di-oxol-5-yl)-N-(5-((2-chlorophenyl)(3-hydroxy-pyrrolidin-1-yl)methyl)thiazol-2-yl)cyclopropane carboxamide]
- Potency: Ks (CFTR [1]): Reference # 24 Name: CF-106951 Potency Ks ~0.6 microM Solvent: DMSO Hints for use: Use at 3 to 6 microM for maximum effect. M.W. 497.99

Compound: O=c1cc(-c2ccncc2)oc2c1ccc1ccccc12 [P8, 4-(4-Oxo-4H-benzo[h]chromen-2-yl)-pyridinium; bisulfate]
- Potency: Ks (CFTR [5]; CFTR potentiator): Reference #** 9 and 10 Potency: Ks = 2 microM Solvent: DMSO Hints For Use: M.W.: 371.4

Compound: CNC[C@H](O)c1ccc(O)c(O)c1 [epinephrine]
- Organoid swelling on compound addition (CFTR [3]): forskolin-like swelling

Compound: NC(=O)c1c(NC(=O)c2ccccc2Cl)sc2c1CCCC2 [P5, 2-(2-Chloro-benzoylamino)-4,5,6,7-tetrahydro-benzo[b] thiophene-3-carboxylic acid amide]
- Potency: Ks (CFTR [5]; CFTR potentiator): Reference #** 6 Name: dF508act-02 Potency: Ks = 70 nM Solvent: DMSO Hints For Use: M.W.: 334.8

Compound: O=c1[nH]c2cc(C(F)(F)F)ccc2n1-c1cccc(Cl)c1 [P4, 1-(3-chlorophenyl)-5-trifluoromethyl-3-hydrobenzi-midazol-2-one]
- Potency: Ks (CFTR [5]; CFTR potentiator): Reference #** 5 Name: UCCF-853 Potency: Ks = 3 microM Solvent: DMSO Hints For Use: M.W.: 312.7

Compound: CC(C)c1ccc(NC(=O)C(c2ccccc2)N(C)C(=O)Cc2c[nH]c3ccccc23)cc1 (centres unmarked) [P2, 2-[(2-1H-lndol-3-yl-acetyl)-methyl-amino]-N-(4-isopropyl-phenyl)-2-phenyl-acetamide]
- Potency: Ks (CFTR [5]; CFTR potentiator): Reference #** 4 Name: PG-01 Potency:Ks = 300 nM Solvent: DMSO Hints For Use: M.W.: 439.5

Compound: COc1ccc2nc(Nc3nc(O)cc(CSc4nc5ccccc5[nH]4)n3)nc(C)c2c1 [C1, 6-(1H-Benzoimidazol-2-ylsulfanyl-methyl)-2-(6-methoxy-4-methyl-quinazolin-2-ylamino)-pyrimidin-4-ol]
- Potency: Ks (CFTR [1]): Reference #** 11 Potency: Ks = 3 microM Solvent: DMSO Hints For Use: M.W.: 445.5

From patent US11035852B2, “Identifying drug candidates for treating polycystic kidney disease using organoids generated from primary cells” (UMC Utrecht Holding B.V., priority 2011, dated 2021)
